Experimental data published in patent US20150238617A1, “SILK RESERVOIRS FOR SUSTAINED DELIVERY OF ANTI-CANCER AGENTS” (TUFTS UNIVERSITY, priority 2012, published 2015).
Values after ≈ are worked out from the molar mass of the structure shown.

How the values were obtained:
[1] = effective steady state diffusion coefficient from cylindrical silk reservoir; type: physicochemical; conditions: anastrozole diffusion in silk reservoir rods
Source text: and different effective length, le values of 10 or 30 mm.

[2] = cited from earlier work
[3] = stability of anastrozole under in vitro release conditions (LC-MS/MS); conditions: deionized water, 0.02 wt. % NaN3, 37° C., longest inter-sampling duration 1 week
Protocol: The release volume was determined to ensure perfect sink conditions in case of a complete burst release according to:
where V, L and S are the release volume, drug loading and aqueous solubility, respectively. At pre-determined time points, 1 ml of the release medium was sampled. After each sampling, the whole medium was exchanged with fresh buffer.

[4] = cited from earlier work; remark: listed apart in the source
[5] = cited from earlier work; remark: listed apart in the source
[6] = in vivo pharmacokinetics, plasma anastrozole by LC-MS/MS; set-up: species or system female Sprague-Dawley rats
Protocol: A 91-day pharmacokinetic study was conducted on female Sprague-Dawley rats (≧250 g). Test article animals were dosed by a single rod implantation, while positive drug control animals were dosed by a single injection of an ethanol:water (3:7, v/v) solution of equivalent dose. Prior to dosing, all animals were anesthetized by intraperitoneal injection of a cocktail containing ketamine HCl (75 mg/kg) and Xylazine HCl (5 mg/kg). Following anesthesia, the dorsal surface of all animals were shaved and prepared for aseptic administration by wiping with betadine and 70% isopropyl alcohol (3 times each). Animals were placed on a sterile surgical field and covered with Steridrape™. Dosing sites were closed with wound clips. The administration site was circled with indelible ink for future identification of location. Following dosing, all animals were placed in a warmed recovery area and observed until recovered from anesthesia and ambulatory. All animals were observed throughout dosing and each scheduled collection. Body weights were collected weekly in addition to the pre-dose body weight during the duration of the study. Serial blood samples were collected via tail vein or jugular vein at pre-dose, 2 h, 6 h, 24 h (1 d), 2 d, 4 d, 7 d, 10 d, 14 d, 21 d, 28 d, 35 d, 42 d, 49 d, 56 d, 63 d, 70 d, 77 d, 84 d and 91 d and analyzed via LC-MS/MS. Blood samples were stored on wet ice until processed to plasma by centrifugation within 30 min of collection. Plasma were stored at −80° C. until LC-MS/MS analysis.
Briefly, 150 μl of frozen in vivo sample or blank plasma (for double blank, blank and standards) was completely thawed and briefly centrifuged (2000 G, 3 min, 4° C.). […] For extraction, 1 ml diethyl ether:dichloromethane (7:3, v/v) was added to 25 μl of plasma (blank, standard or sample) and 10 μl of aqueous internal standard (100 ng/ml Chlorpheniramine) or deionized water (for double blank) in a glass centrifuge tube using glass serological pipettes and vortexed for 40 s. […]
The auto-sampler of the LC system was kept at 5° C. […] The limit of quantitation (LOQ) was 0.6 ng/ml.

[7] = cited from earlier work; remark: listed apart in the source

**Q.** For `CC(C)(C#N)c1cc(Cn2cncn2)cc(C(C)(C)C#N)c1` [anastrozole], which “effective steady state diffusion coefficient De” value [1] is on record?
**A.** Its value is 2.4×10^−8 cm^2/s.

**Q.** And the pKa [2]?
**A.** Its pKa is 1.4.

**Q.** And the “degradation of Anastrozole under release conditions” value [3]?
**A.** The value was “No significant degradation”.

**Q.** What about the “log P(octanol/water)” value [4] of the same molecule?
**A.** Its value is 1.58.

**Q.** What about the “terminal elimination half-life t1/2” value ([5]; Product Monograph value) of the same molecule?
**A.** The value was 50 h.

**Q.** And the “volume of distribution V” value ([5]; Product Monograph value)?
**A.** Its value is 74 L.

**Q.** What about the “steady state plasma concentration Css” value ([5]; factors in reported accumulation) of the same molecule?
**A.** Its value is 0.025 µg/mL.

**Q.** What about the half-life ([6]; female, Sprague-Dawley, rat, plasma, sc, single s.c. injection of solution, high and low dose, read-out: apparent terminal elimination half-life (converted)) of the same molecule?
**A.** Its half-life is roughly 6 h.

**Q.** What about the “time of peak plasma concentration” value ([6]; single s.c. injection of solution (water:ethanol 7:3), high (14 mg) and low (5.8 mg) dose) of the same molecule?
**A.** Its value is 6 h.

**Q.** And the “time to decline to background plasma levels” value ([6]; single s.c. injection of solution, high and low dose)?
**A.** The value was no more than 96 h.

**Q.** And the water solubility ([7]; at 25° C.)?
**A.** The water solubility was 0.5 mg/mL (≈ 1700 µM).

**Q.** And the “aqueous solubility Cs of anastrozole in water” value ([7]; value used in diffusion equation)?
**A.** Its value is 5 mg/mL.
